Results from patent US9982033B2, “Factor VIII polypeptide titers in cell cultures” (Novo Nordisk A/S, priority 2007, dated 2018).

What was measured:
[1] = system: BDD Factor VIII producing cells (1C5-SF cell line); test: Supplementing serum-free medium of BDD Factor VIII producing cells with O-phospho-L-serine and/or a plant hydrolysate; format: cell-based; details: O-phospho-L-serine 20 mM and/or plant hydrolysate 5 mg/ml, four days after seeding
Experimental: ELISA: Strip wells are pre-coated with sheep polyclonal antibody to human Factor VIII. Samples are diluted and applied to the wells. The Factor VIII antigen present binds to the coated antibody. After washing away unbound material, peroxidase-labeled sheep detecting antibody is applied and allowed to bind to the captured Factor VIII. The wells are again washed and a solution of TMB (the peroxidase substrate tetramethylbenzidine) is applied and allowed to react for a fixed period of time. A blue color develops which changes to yellow upon quenching the reaction with acid. The color formed is measured spectrophotometrically in a microplate reader at 450 nm. The absorbance at 450 nm is directly proportional to the quantity of Factor VIII antigen captured onto the well (VisuLize, FVIII antigen kit, Affinity biologicals). […]
F25 ELISA: ELISA: Strip wells are pre-coated with sheep polyclonal antibody to human Factor VIII. […] The color formed is measured spectrophotometrically in a microplate reader at 450 nm. The absorbance at 450 nm is directly proportional to the quantity of Factor VIII antigen captured onto the well. […]
The total Factor VIII antigen content of each culture was determined by sandwich ELISA. […]

[2] = system: Factor VIII producing cells; test: Supplementing serum-free cell culture medium of Factor VIII producing cells with OPLS (high-cell density perfusion model); format: cell-based, Chinese Hamster; details: for Factor VIII productivity / Factor VIII protein specific activity: 24 hours, 35° C.
Excerpt: Cell line: The cell line used for transfection, dhfr− CHO cells DUKX-B11 cells (Urlaub, G. & Chasin, L. A. (1980) Proc. Natl. Acad. Sci. USA 77, 4216-4220), was adapted to grow in suspension cultures using serum-free medium supplemented with ribonucleosides and deoxyribonucleosides.
Expression vector: Factor VIII transcription is achieved using an adenovirus-SV40 promoter and a selection by a di-hydrofolate reductase selection marker. The expressed Factor VIII molecule consist of the heavy chain (HC) and light chain (LC) of Factor VIII connected with a small linker derived from the B-domain. The B-domain has been removed, since this allows for higher expression of Factor VIII and the biological activity of Factor VIII is retained.
Cell culturing during serum free medium supplementation experiments: For media supplement experiments cells were cultivated in a high-cell density perfusion model in 50 mL shaker tubes with vented cap at 35° C. in serum free medium, as described below. Cells were cultivated in large shaker flasks at 37° C. Cell viability was measured at cell harvest, and this was always >95%. Harvested cells were re-suspended into fresh medium. 2.5 mL of the harvested and re-suspended cells was added to 2.5 mL of fresh medium containing the supplement to give a total volume of 5 mL, with a concentration of 1×10^7 cells/mL. Shaker tubes were then placed in shaker at 35° C. and 250 rpm. After 24 hours, samples were assayed for cell density, viability, CoA, ELISA and Factor VIII protein integrity by Western blot.
CoA assay (Factor VIII activity assay): In the presence of calcium and phospholipids, Factor X is activated to Factor Xa by Factor IXa. This generation is greatly stimulated by Factor VIII, which may be considered as a cofactor in this reaction. By using optimal amounts of Ca^2+ and phospholipids and an excess of Factors IXa and X, the rate of activation of Factor X is solely dependent on the amount of Factor VIII. Factor Xa hydrolyses the chromogenic substrate S-2765 thus liberating the chromophoric group, pNA. The colour is then read photometrically at 405 nm. The generated Factor Xa and thus the intensity of colour is proportional to the Factor VIII activity in the sample. Hydrolysis of S-2765 by thrombin formed is prevented by the addition of the synthetic thrombin inhibitor, I-2581, together with the substrate (Chromogenix Coatest SP Factor VIII, diaPharma)
ELISA: Strip wells are pre-coated with sheep polyclonal antibody to human Factor VIII. Samples are diluted and applied to the wells. The Factor VIII antigen present binds to the coated antibody. After washing away unbound material, peroxidase-labeled sheep detecting antibody is applied and allowed to bind to the captured Factor VIII. The wells are again washed and a solution of TMB (the peroxidase substrate tetramethylbenzidine) is applied and allowed to react for a fixed period of time. A blue color develops which changes to yellow upon quenching the reaction with acid. The color formed is measured spectrophotometrically in a microplate reader at 450 nm. The absorbance at 450 nm is directly proportional to the quantity of Factor VIII antigen captured onto the well (VisuLize, FVIII antigen kit, Affinity biologicals). The assay is calibrated using purified B domain deleted Factor VIII.
OPLS was supplemented to serum free cell culture medium in the indicated concentration according to the experimental details described under materials and methods. The results can be seen from the below Table 3 and from FIGS. 2A and 2B.

[3] = OPLS 0.03 mM in serum free medium
[4] = OPLS 0.1 mM in serum free medium
[5] = OPLS 0.3 mM in serum free medium
[6] = OPLS 10 mM in serum free medium
[7] = OPLS 30 mM in serum free medium

SMILES: N[C@@H](COP(=O)(O)O)C(=O)O [OPLS, O-Phospho-L-Serine]
- proportion of Factor VIII with intact heavy chain C-terminal in the medium ([1]; F25 ELISA versus total Factor VIII antigen): increased
- quality of recombinant Factor VIII from cell cultures (specific activity) ([1]; CDM4CHO medium, FIG. 3A-C): improved
- yield of recombinant Factor VIII from cell cultures ([1]; CDM4CHO medium, FIG. 3A-C): improved
- Factor VIII productivity [2, 3]: 0.068 pcd
- Factor VIII protein specific activity [2, 3]: 11.8 U/microg
- Factor VIII productivity [2, 4]: 0.062 pcd
- Factor VIII protein specific activity [2, 4]: 12.8 U/microg
- Factor VIII productivity [2, 5]: 0.052 pcd
- Factor VIII protein specific activity [2, 5]: 12.2 U/microg
- Factor VIII productivity ([2]; OPLS 1 mM in serum free medium): 0.058 pcd
- Factor VIII protein specific activity ([2]; OPLS 1 mM in serum free medium): 12.6 U/microg
- Factor VIII productivity ([2]; OPLS 3 mM in serum free medium): 0.066 pcd
- Factor VIII protein specific activity ([2]; OPLS 3 mM in serum free medium): 15.8 U/microg
- Factor VIII productivity [2, 6]: 0.10 pcd
- Factor VIII protein specific activity [2, 6]: 15.4 U/microg
- Factor VIII productivity [2, 7]: 0.18 pcd
- Factor VIII protein specific activity [2, 7]: 15.0 U/microg
- specific productivity of Factor VIII producing cells ([2]; conclusion in words, FIG. 2A): increases
- specific activity of Factor VIII ([2]; conclusion in words, FIG. 2B): increases
